Experimental data published in patent US8222020B2, “Biologically pure strain of Lactobacillus fermentum, strain Ess-1” (SCA Hygiene Products AB, priority 2006, dated 2012).

System: C. albicans
Test: Screening II: Candida growth in Lactobacillus cell-free filtrate (LCF), visual turbidity scale 5 to 0
Type: cell-based, Candida albicans
Details: acids 50 mM, salts 0.3%; 20 hours at 37° C.
Text: Clinical isolates of Candida albicans and Candida glabrata were used as test strains. These were isolated from the vagina of women with vaginal candidiasis and from healthy females. Suspensions of lactobacilli grown in dMRSs broth (MRS broth without addition of sodium acetate) were centrifuged and sterile filtered. The filtrate is henceforth called Lactobacillus Cell-free Filtrate, LCF. A specified volume was transferred to wells of a micro titre plate and was let to air dry and thereafter resuspended in sterile distilled water to a concentration three times higher and transferred to 96-wells micro titre plates. Candida was added to all vials (three isolates of C. albicans and C. glabrata, respectively, were used). The inhibition was evaluated by visual observation of turbidity and graduated by two persons using a template on a scale from five to zero. […] The plates were incubated for 20 hours at 37° C. and the candida growth in the vials was visually evaluated and graduated from five to zero. […] The inhibition was evaluated by visual observation of turbidity and graduated by two persons using a template on a scale from five to zero. […] The plates were incubated for 20 hours at 37° C. and the candida growth in the wells was visually evaluated and graduated from five to zero.

SMILES | effect of acids and acid salts on the growth of C. albicans
CCC(=O)O [propionic acid] | most extended effect
CCC(=O)[O-].[Na+] [Sodium propionate] | most extended effect
